Patent publication US6472348B1, “Pyridone derivatives and herbicides” (Kumiai Chemical Industry Co., Ltd., priority 1996, dated 2002)

Key:
China jute (Ab) = assay: Test Example 6: crop plant selectivity by upland field soil treatment (soybean), herbicidal effects; format: in vivo; design: scale not given here; details: 21st day after application
How it was run: (§1)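 Soybean and weed seeds were sown in sand-filled pots and covered with soil, then given a pre-emergence soil application. Plants were grown on in a greenhouse, and herbicidal effect and crop phytotoxicity were scored against a set rating scale 21 days after application.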

[1] = system: common lambsquarters (Ch); assay: as above; format: in vivo; design: scale not given here; details: 21st day after application
How it was run: as §1

green foxtail (Se) = assay: as above; format: in vivo; design: scale not given here; details: 21st day after application
How it was run: as §1

pale smartweed (Po) = assay: as above; format: in vivo; design: scale not given here; details: 21st day after application
How it was run: as §1

slender amaranth (Am) [2] = assay: as above; format: in vivo; design: scale not given here; details: 21st day after application
How it was run: as §1

[3] = system: common lambsquarters (Ch); assay: Test Example 11: crop plant selectivity by upland field foliage treatment (corn), herbicidal effects; format: in vivo; design: scale not given here; details: dose 1.6 g ai/10a
How it was run: (§2)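 Corn with pale smartweed, slender amaranth, common lambsquarters and China jute sown in sand-filled pots and grown 2 weeks in a greenhouse before foliage treatment. Herbicidal effect and crop phytotoxicity scored on day 14 after treatment against a rating standard.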

slender amaranth (Am) [4] = assay: as above; format: in vivo; design: scale not given here; details: dose 1.6 g ai/10a
How it was run: as §2

[5] = upland field foliage treatment (corn test), 14th day after treatment

SMILES	Herbicidal effects Ab (China jute (Ab); dose 1.6 g ai/10a)	Herbicidal effects Ab (China jute (Ab); dose 6.3 g ai/10a)	Herbicidal effects Ch ([1]; dose 1.6 g ai/10a)	Herbicidal effects Ch ([1]; dose 6.3 g ai/10a)	Herbicidal effects Se (green foxtail (Se); dose 1.6 g ai/10a)	Herbicidal effects Se (green foxtail (Se); dose 6.3 g ai/10a)	Herbicidal effects Po (pale smartweed (Po); dose 1.6 g ai/10a)	Herbicidal effects Po (pale smartweed (Po); dose 6.3 g ai/10a)	Herbicidal effects Am (slender amaranth (Am) [2]; dose 1.6 g ai/10a)	Herbicidal effects Am (slender amaranth (Am) [2]; dose 6.3 g ai/10a)	Herbicidal effects Ch [3, 5]	Herbicidal effects Am (slender amaranth (Am) [4]; [5])	Herbicidal effects Ch ([3]; common lambsquarters, foliage treatment, evaluated on 14th day after treatment, index per Table 47)	Herbicidal effects Am (slender amaranth (Am) [4]; slender amaranth, foliage treatment, evaluated on 14th day after treatment, index per Table 47)	melting point
Cn1c(C(F)(F)F)ccc(-c2cc(Cl)c(Cl)cc2F)c1=O [1-136]	4	5	5	5	5	5	5	5	5	5					
C=CC(O)c1cc(-c2ccc(C(F)(F)F)n(C)c2=O)c(F)cc1Cl (centres unmarked) [Compound 1-197]		5		5		5		5		5	5	5			
C#CCOc1cc(-c2ccc(C(F)(F)F)n(N)c2=O)c(F)cc1Cl [1-178]											5	5			
Cn1c(C(F)(F)F)ccc(-c2cc(OCC#N)c(Cl)cc2F)c1=O [1-25]		5		5		5		5		5	5	5			
Cn1c(C(F)(F)F)ccc(-c2cc(OCC3CC3)c(Cl)cc2F)c1=O [1-160]		5		5		5		5		5					
C#CC(C)Oc1cc(-c2cn(C)c(C(F)(F)F)cc2=O)c(F)cc1Cl (racemic) [Compound 6-10]	4		5		4		5		5				5	5	
CCCC(=O)c1cc(-c2ccc(C(F)(F)F)n(C)c2=O)c(F)cc1Cl [Compound No. 1-194, 3-[4-chloro-2-fluoro-5-(1-oxobutyl)phenyl]-1-methyl-6-trifluoromethyl-2(1H)-pyridone]		5		5		5		5		5	5	5			
C#CC(C)Oc1cc(Cl)cc(F)c1-c1ccc(C(F)(F)F)n(C)c1=O (centres unmarked) [1′-5]	5	5	5	5	4	5	5	5	5	5	5	5			
COCSc1cc(-c2ccc(C(F)(F)F)n(C)c2=O)c(F)cc1Cl [1-91]	5	5	5	5	5	5	5	5	5	5					
Cc1cc(-c2ccc(C(F)(F)F)n(C)c2=O)c(F)cc1Cl [1-90]	5	5	5	5	5	5	5	5	5	5					
CC(C)Sc1cc(-c2ccc(C(F)(F)F)n(C)c2=O)c(F)cc1Cl [1-43]		4		5		5		5		5					
CCOC(=O)CON=Cc1cc(-c2ccc(C(F)(F)F)n(C)c2=O)c(F)cc1Cl [Compound 1-191]		5		5		5		5		5	5	5			
C#CCOc1cc(-c2ccc(C(F)(F)F)n(C)c2=O)c(F)cc1Cl [1-18]	5		5		5		5		5		5	5			
Cc1cc2c(-c3cn(C)c(C(F)(F)F)cc3=O)c(F)cc(Cl)c2o1 [Compound No. 9-1, 5-(7-chloro-5-fluoro-2-methylbenzofuran-4-yl)-1-methyl-2-trifluoromethyl-4(1H)-pyridone]															208 to 211 °C
C#CCN1C(=O)COc2cc(Cl)c(-c3ccc(C(F)(F)F)n(C)c3=O)cc21 [Compound 2-25]	5	5	5	5	5	5	5	5	5	5	5	5			
Cn1c(C(F)(F)F)ccc(-c2cc(OCC(F)(F)F)c(Cl)cc2F)c1=O [1-155]	5	5	5	5	5	5	5	5	5	5					
